Consider five molecules from patent US9732092B2, “Substituted 2,3,4,5,7,9,13,13a-octahydropyrido[1′,2′:4,5]pyrazino[2,1-b][1,3]OXAZEPINES and methods for treating viral infections” (Gilead Sciences, Inc., priority 2012, dated 2017).

The nature of data set [1]: in vitro. The following applies: human. The method, then: (§1) For the antiviral assay utilizing MT4 cells, 0.4 μL of […] test concentration of 3-fold serially diluted compound in DMSO was added to 40 μL of cell growth medium (RPMI 1640, 10% FBS, 1% penicilline/Streptomycine, 1% L-Glutamine, 1% HEPES) in each well of 384-well assay plates (10 concentrations) in quidruplicate.
(§2) 1 mL aliquots of 2×10^6 MT4 cells are pre-infected for 1 and 3 hours respectively at 37° C. with 25 μL (MT4) or of either cell growth medium (mock-infected) or a fresh 1:250 dilution of an HIV-IIIb concentrated ABI stock (0.004 m.o.i. for MT4 cells). Infected and uninfected cells are diluted in cell growth medium and 35 μL of 2000 (for MT4) cells is added to each well of the assay plates.
(§3) Assay plates were then incubated in a 37° C. incubator. After 5 days of incubation, 25 μL of 2× concentrated CellTiter-GloT Reagent (catalog # G7573, Promega Biosciences, Inc., Madison, Wis.) was added to each well of the assay plate. Cell lysis was carried out by incubating at room temperature for 2-3 minutes, and then chemiluminescence was read using the Envision reader (PerkinElmer).

The subject of data set [2] is MT4 cells. The data set is described as follows: Cytotoxicity (CC50) in MT4 cells, mock-infected. Conditions: read-out: CC50 nM in MT-4; MT4 cells, 5 days, CellTiter-Glo. The procedure: as §1, §2, §3
(In ATP-based viability assays light output follows the ATP content of the culture.)

A short description of data set [3]: Pharmacokinetic analysis following oral administration to beagle dogs. The data set is classed as in vivo. Conditions: beagle dog, 1 mg/kg. The method, then: Pharmacokinetic analysis was performed on various test compounds following intravenous or oral administration to beagle dogs.
For pharmacokinetic analysis of intravenously administered compounds, the test compounds were formulated in 5% Ethanol, 55% PEG 300, and 40% water at 0.1 mg/mL for IV infusion. For pharmacokinetic analysis of orally administered compounds, the test compounds were formulated as an aqueous suspension in 0.1% Tween 20, 0.5% HPMC LV100 in Di Water at 1 mg/kg.
Each dosing group consisted of 3 male, non-naïve purebred beagle dogs. At dosing, the animals weighed between 10 to 13 kg. The animals were fasted overnight prior to dose administration and up to 4 hr after dosing. For studies of intravenous administration, the test article was administered to the animals by intravenous infusion over 30 min. The rate of infusion was adjusted according to the body weight of each animal to deliver a dose of 0.5 mg/kg. […]
For pharmacokinetic analysis of orally administered compounds, serial venous blood samples (approximately 0.3 mL each) were taken from each animal at time points of 0, 0.25, 0.50, 1.0, 2.0, 4.0, 6.0, 8.0, 12.0 and 24.0 hours after dosing. Blood samples were collected, prepared and analyzed in a similar way to the intranveous studies described above. […]

Data set [4] concerns the target human PXR (NR1I2) (Homo sapiens (Human), UniProt O75469). Description: Human PXR activation assay (luciferase reporter gene, DPX2 cells). The data set is classed as cell-based. Conditions: relative to maximum fold induction by 10 or 20 μM rifampicin. The procedure: A stably transformed tumor cell line (DPX2) was plated on 96-well microtiter plates. DPX2 cells harbor the human PXR gene (NR1I2) and a luciferase reporter gene linked to two promoters identified in the human CYP3A4 gene, namely XREM and PXRE. […] The number of viable cells was determined and the reporter gene activity was assessed. Positive control: […]

The mark [5] stands for this setting: MT4 cells, mock-infected (uninfected).

human PXR (NR1I2), sequence (O75469 whole entry): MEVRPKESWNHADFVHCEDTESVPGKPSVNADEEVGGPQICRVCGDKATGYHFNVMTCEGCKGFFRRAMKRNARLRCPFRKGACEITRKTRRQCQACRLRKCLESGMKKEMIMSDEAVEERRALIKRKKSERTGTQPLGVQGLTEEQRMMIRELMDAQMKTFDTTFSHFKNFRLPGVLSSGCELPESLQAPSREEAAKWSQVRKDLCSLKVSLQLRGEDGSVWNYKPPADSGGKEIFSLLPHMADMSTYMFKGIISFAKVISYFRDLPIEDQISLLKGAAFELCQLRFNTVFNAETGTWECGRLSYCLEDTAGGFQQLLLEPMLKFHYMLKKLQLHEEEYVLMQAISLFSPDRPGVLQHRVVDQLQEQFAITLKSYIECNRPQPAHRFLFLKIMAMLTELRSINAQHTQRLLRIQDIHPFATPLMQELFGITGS

In data set [1], `O=C(NCc1ccc(F)cc1F)c1cn2c(c(O)c1=O)C(=O)N1[C@@H]3COC[C@@H](C3)O[C@H]1C2` (racemic) [50/51, N-(2,4-difluorobenzyl)-9-hydroxy-8,10-dioxo-2,3,5,6,8, 10,14,14a-octahydro-2,6-methanopyrido[1′,2′:4,5]pyrazino[2,1-b][1,6,3]dioxazocine-11-carboxamide] registered a CC50 at 5 days of 37.2 µM. Turning to `O=C(NC1(c2ccc(F)cc2F)CCCCC1)c1cn2c(c(O)c1=O)C(=O)N1C(C2)O[C@H]2CC[C@@H]1C2` (stereo partly drawn) [Compound 34, (2S,5R)—N-(1-(2,4-difluorophenyl)cyclohexyl)-8-hydroxy-7,9-dioxo-2,3,4,5,7,9,13,13a-octahydro-2,5-methanopyrido[1′,2′:4, 5]pyrazino[2,1-b][1,3]oxazepine-10-carboxamide], the CC50 in data set [2] was 3580 nM. `O=C(NCc1c(F)cc(F)cc1F)c1cn2c(c(O)c1=O)C(=O)N1[C@H]3CC[C@H](C3)O[C@@H]1C2` [Compound 42, (2R,5S,13aR)-8-hydroxy-7,9-dioxo-N-(2,4,6-trifluorobenzyl)-2,3,4,5,7,9,13,13a-octahydro-2,5-methanopyrido[1′,2′:4,5]pyrazino[2,1-b][1,3]oxazepine-10-carboxamide]: in data set [3], the “F (%) aqueous suspension” value stood at 28.0%.

The molecule `O=C(NCc1c(F)cc(F)cc1F)c1cn2c(c(O)c1=O)C(=O)N1[C@H]3CC[C@H](CC3)[C@H]1C2` [Compound 101, (1R,4R,12aS)-7-hydroxy-6,8-dioxo-N-(2,4,6-trifluorobenzyl)-1,2,3,4,6,8,12,12a-octahydro-1,4-ethanodipyrido[1,2-a:1′,2′-d]pyrazine-9-carboxamide] came in with a CC50 at 5 days in data set [1] (setting [5]) of 11.6 µM. For orientation: Emax means the greatest response seen or fitted, relative to the assay's reference. In data set [1] (setting [5]), `O=C(NCc1c(F)cc(F)cc1F)c1cn2c(c(O)c1=O)C(=O)N1[C@H]3CC[C@H](CC3)[C@@H]1C2` [Compound 102, (1S,4S,12aR)-7-hydroxy-6,8-dioxo-N-(2,4,6-trifluorobenzyl)-1,2,3,4,6,8,12, 12a-octahydro-1,4-ethanodipyrido[1,2-a:1′,2′-d]pyrazine-9-carboxamide] had a CC50 at 5 days of 12 µM. In data set [4], this molecule gave an Emax at 24 h, 15 µM of 123%.
